Values quoted from earlier work, collected in patent publication US20170261495A1, “MODEL SYSTEMS FOR SCREENING MODULATORS OF mTOR SIGNALING” (SHRINERS HOSPITALS FOR CHILDREN, priority 2015, published 2017).

Details: clinical trials

## CO[C@H]1C[C@@H]2CC[C@@H](C)[C@@](O)(O2)C(=O)C(=O)N2CCCC[C@H]2C(=O)O[C@H]([C@H](C)C[C@@H]2CC[C@@H](OCCO)[C@H](OC)C2)CC(=O)[C@H](C)/C=C(\C)[C@@H](O)[C@@H](OC)C(=O)[C@H](C)C[C@H](C)/C=C/C=C/C=C/1C [everolimus]
TSC
  effects on epilepsy: minimal
TSC (Krueger et al., 2010)
  size of renal and brain tumors: clear reduction
